How the values were obtained:
[1] = system: primary rat HSCs; test: qRT-PCR gene expression in culture-activated primary rat HSCs; assay type: cell-based
Description: (§1) A series of experiments were conducted to determine the functional role of Rev-erbα in HSC transdifferentiation. In these experiments, culture-activated primary rat HSCs and human LX-2 cells were used. To determine the effect of Rev-erbα on HSC transdifferentiation and contraction, cells were treated with a specific synthetic modulator, SR6452 (10 μM). mRNA and protein expression were determined by qRT-PCR and Western blot, respectively. Changes in cellular morphology, Rev-erbα expression/localization and αSMA expression were observed by confocal microscopy. Additionally, cell contractility was assessed.
(§2) Primary rat HSCs were isolated by pronase/collagenase perfusion digestion followed by density gradient centrifugation with Optiprep. Media was replaced every other day to replenish Rev-erb modulator SR6452, which was present at a 10 μM concentration. Cells were treated with MDIR mixture (IBMX, dexamethasone, insulin, rosiglitazone), TGFβ, or DMSO (vehicle). Some experiments were performed with the human HSC cell line, LX-2.
mRNA expression was normalized to 18S rRNA.
(§3) FIGS. 3A-B illustrates that modulation of Rev-erbα activity can regulate adipogenesis. Primary HSCs were culture-activated for 5 days (A) or 15 days (B). Cells were treated with vehicle (DMSO, open bar), or the Rev-erb modulator SR6452 (10 mM, purple bar) for the days indicated. The medium was changed every 48 hrs. FIG. 3A provides a chart summarizing the amount of PPARγ, SREBP1, and Lep mRNA on day 5.
FIGS. 4A-B illustrate that the Rev-erb modulator SR6452 can suppress/decrease ECM gene expression. Primary rat HSCs were cultured from quiescence (day Q) to day 5 (FIG. 4A) or from day 9 to day 12 (FIG. 4B) and treated with Rev-erb modulator SR6452. qRT-PCR was performed to determine ECM gene expression. DMSO was used as the vehicle control, while SR6452 was used as the Rev-erb modulator.
(§4) FIGS. 5A-D illustrate that Rev-erb modulator SR6452 can regulate myofibroblast marker expression and HSC contraction. Primary rat HSCs were cultured from quiescence (day Q) to day 5 (FIG. 5A) or from day 9 to day 12 (FIG. 5B) and treated with Rev-erb modulator SR6452. qRT-PCR was performed for myofibroblast gene expression. Samples were normalized with 18S rRNA. […] HSCs (day 5) were embedded in a collagen gel and treated as indicated for 48 hrs. Gels were then released from plastic surface and contraction monitored after 72 hrs. Materials used were DMSO (vehicle control), SR6452, Rev-erb modulator; and BDM (2,3-Butanedione monoxime), myosin inhibitor.

[2] = system: primary HSCs; test: Oil Red O staining / adipogenesis of HSCs; assay type: cell-based, rat
Description: FIGS. 3A-B illustrate how modulation of Rev-erbα activity can regulate adipogenesis. Primary HSCs were culture-activated for 5 days (A) or 15 days (B). Cells were treated with vehicle, DMSO (open bar), or Rev-erb agonist SR6452 ([…], solid bar). FIG. 3A provides a graph summarizing the amount of PPARγ, SREBP1, and Lep mRNA detected after 5 days of culture.
as §2, §3

[3] = system: primary HSCs; test: Immunocytochemistry (αSMA, DAPI) and cellular morphology by confocal microscopy; assay type: cell-based, rat; conditions: HSCs (day 9) treated 72 hrs
Description: as §1
Prior to transfection, culture-activated HSCs (for varying days of activation) were seeded onto glass coverslips. Cells were fixed with 4% paraformaldehyde and stained with anti-αSMA antibody, a marker of HSC activation. Cells were imaged using a Zeiss confocal microscope. The fluorescence indicates Rev-erbα or αSMA expression.
FIGS. 5A-D illustrate that Rev-erb modulator SR6452 can regulate myofibroblast marker expression and HSC contraction. Primary rat HSCs were cultured from quiescence (day Q) to day 5 (FIG. 5A) or from day 9 to day 12 (FIG. 5B) and treated with Rev-erb modulator SR6452. qRT-PCR was performed for myofibroblast gene expression. Samples were normalized with 18S rRNA. […] Gels were then released from plastic surface and contraction monitored after 72 hrs. […]

[4] = system: primary rat HSCs; test: Cell contraction assay (collagen lattice); assay type: cell-based; conditions: collagen gel, SR6452
Description: Primary rat HSCs (day 9, 2-5×10^6 cells/ml) were embedded in a collagen lattice per manufacturer's instructions. Cells were treated with synthetic Rev-erbα ligand SR6452. Collagen gel size change was imaged using a BioSpectrum Imaging System.
as §4

[5] = system: cirrhotic rats; test: Hemodynamic measurements in bile duct-ligated (BDL) rats; assay type: in vivo, rat; conditions: 10 μM/kg femoral vein, one hour
Description: Studies were performed to determine the in vivo efficacy of using SR6452 as a treatment for portal hypertension. Rats underwent bile duct-ligation (˜5 weeks, until ascites developed) to induce fibrosis and thus portal hypertension. Initial hemodynamic measurements were taken prior to addition of the agonist. SR6452 (10 μM/kg body weight) was administered via the femoral vein and measurements taken again one hour after administration. Experiments were performed 5 weeks after male Sprague-Dawley rats underwent bile duct-ligation (BDL), when cirrhosis was fully established and ascites present. SR6452 (10 μM/kg body weight) was administered via the femoral vein and hemodynamic measurements taken one hour after administration. Hemodynamic studies were performed as previously described (J Hepatol 2012 57:1220-1227). Briefly, a laparotomy was performed under anesthesia. A PE-50 catheter was introduced into a small ileocolic vein and advanced to the portal vein for measurement of portal pressure. The left femoral artery and vein were cannulated with PE-50 catheters for measurement of mean arterial pressure, central venous pressure and blood withdrawal. Via the right carotid artery, another PE-50 catheter was advanced into the left ventricle under pulse curve control, for microsphere application. After insertion of all catheters, rats were allowed to stabilize hemodynamically for 30 min. Cardiac output and organ perfusions were measured using the colored microsphere method as described (J Hepatol 2012 57:1220-1227). Briefly, 300,000 systemic (yellow) microspheres (15 μm diameter) were injected in the left ventricle. The mesenteric portal-systemic shunt volume was estimated after injection of 150,000 blue microspheres in an ileocolic vein.

[6] = system: Rev-erbα; test: Western blot of Rev-erbα in HSCs treated with pro- and anti-fibrogenic factors; assay type: cell-based, rat
Description: FIGS. 2A-B illustrate the regulation of Rev-erbα expression by pro- and anti-fibrogenic factors. […] Cells were harvested for protein and Western blots performed to detect Rev-erbα.
as §2
FIG. 2B show results from primary HSCs that were treated with pro-fibrogenic factor TGFβ (5 ng/ml) or myosin inhibitors blebbistatin (Bleb) or BDM (2,3-Butanedione monoxime) for 48 hrs. Cells were harvested for protein and Western blots performed to detect Rev-erbα.

[7] = SR6452 10 μM, day Q to day 5 or day 9 to day 12

Compound	effects on major regulatory and structural genes controlling myofibroblast contraction [1, 7]	expression of key extracellular matrix components, including Type I collagen, fibronectin, and tenascin C [1, 7]	expression of major adipogenic factors, notably PPARγ and SREBP1 ([1]; SR6452 10 μM, mRNA, day 5)	effect on HSC activation ([1]; overall conclusion of the in vitro data)	lipid content in activated HSCs ([2]; SR6452 10 μM, primary HSCs)	HSC adipogenesis ([2]; exposure of quiescent HSCs)	morphology of treated primary HSCs [3]	HSC contraction [4]	portal pressure (PP) after SR6452 ([5]; mean, p=0.017) [mmHg]	hepatic-portal vascular resistance after SR6452 ([5]; mean, p=0.043) [mmHg/min/100 g/ml]	splanchnic vascular resistance after SR6452 ([5]; mean, p=0.048) [mmHg/min/100 g/ml]	reduction in hepatic-portal vascular resistance ([5]; vs baseline) [%]	reduction in splanchnic vascular resistance ([5]; vs baseline) [%]	cytoplasmic Rev-erbα ([6]; TGFβ 5 ng/ml, 48 hrs)	Rev-erbα protein expression ([6]; Western blot)
CC(C)(C)OC(=O)CN(Cc1ccc(Cl)cc1)Cc1ccc([N+](=O)[O-])s1 [SR6452]	repressive effects	significantly down-regulated	up-regulated	suppressive effect	increased	promoted	slightly rounded/folded cytoplasm with disoriented actin fibers	impeded	19.1	8.8	27.5	36	13.5		
TGFβ														stabilized	increased

— US9872851B2, “Methods of treating portal hypertension” (The Charlotte-Mecklenburg Hospital Authority, priority 2012, dated 2018)
